From patent US10208019B2, “GLP-1 receptor agonists and uses thereof” (Pfizer Inc., priority 2016, dated 2019) come the findings set out here.

For experiment [1], the target named is human GLP-1R (Homo sapiens (Human), UniProt P43220, L260F). As to the kind of experiment: CHO GLP-1R Clone C6—Assay 2: HTRF cAMP cell-based functional agonist assay (low GLP-1R density). The following applies: for EC50: CHO GLP-1R Clone C6, cAMP HTRF, geometric mean; for Emax: read-out: Assay 2 Emax (%).
Experiment [2] deals with human GLP-1R (Homo sapiens, UniProt P43220, G168S). Nature of the experiment: CHO GLP-1R Clone H6—Assay 1: HTRF cAMP cell-based functional agonist assay (high GLP-1R density). Conditions: for EC50: read-out: Assay 1 EC50, CHO GLP-1R Clone H6, cAMP HTRF, geometric mean.
Description: GLP-1R-mediated agonist activity was determined with a cell-based functional assay utilizing an HTRF (Homogeneous Time-Resolved Fluorescence) cAMP detection kit (cAMP HI Range Assay Kit; CisBio cat #62AM6PEJ) that measures cAMP levels in the cell. The method is a competitive immunoassay between native cAMP produced by the cells and exogenous cAMP labeled with the dye d2. The tracer binding is visualized by a mAb anti-cAMP labeled with Cryptate. The specific signal (i.e. energy transfer) is inversely proportional to the concentration of cAMP in either standard or experimental sample.
The human GLP-1R coding sequence (NCBI Reference Sequence NP_002053.3, including naturally-occurring variant Gly168Ser) was subcloned into pcDNA3 (Invitrogen) and a cell line stably expressing the receptor was isolated (designated Clone H6).
Cells were removed from cryopreservation, re-suspended in 40 mL of Dulbecco's Phosphate Buffered Saline (DPBS-Lonza Cat #17-512Q) and centrifuged at 800×g for 5 min at 22° C. The cell pellet was then re-suspended in 10 mL of growth medium [DMEM/F12 1:1 Mixture with HEPES, L-Gln, 500 mL (DMEM/F12 Lonza Cat #12-719F), 10% heat inactivated fetal bovine serum (Gibco Cat #16140-071), 5 mL of 100× Pen-Strep (Gibco Cat #15140-122), 5 mL of 100× L-Glutamine (Gibco Cat #25030-081) and 500 μg/mL Geneticin (G418) (Invitrogen #10131035)]. A 1 mL sample of the cell suspension in growth media was counted on a Becton Dickinson ViCell to determine cell viability and cell count per mL. The remaining cell suspension was then adjusted with growth media to deliver 2000 viable cells per well using a Matrix Combi Multidrop reagent dispenser, and the cells were dispensed into a white 384 well tissue culture treated assay plate (Corning 3570). The assay plate was then incubated for 48 hours at 37° C. in a humidified environment in 5% carbon dioxide.
Varying concentrations of each compound to be tested (in DMSO) were diluted in assay buffer (HBSS with Calcium/Magnesium (Lonza/BioWhittaker cat #10-527F)/0.1% BSA (Sigma Aldrich cat #A7409-1L)/20 mM HEPES (Lonza/BioWhiftaker cat #17-737E) containing 100 μM 3-isobutyl-1-methylxanthin (IBMX; Sigma cat #15879). The final DMSO concentration is 1%.
After 48 hours, the growth media was removed from the assay plate wells, and the cells were treated with 20 μL of the serially diluted compound in assay buffer for 30 minutes at 37° C. in a humidified environment in 5% carbon dioxide. Following the 30 minute incubation, 10 μL of labeled d2 cAMP and 10 μL of anti-cAMP antibody (both diluted 1:20 in cell lysis buffer; as described in the manufacturer's assay protocol) were added to each well of the assay plate. The plates were then incubated at room temperature and after 60 minutes, changes in the HTRF signal were read with an Envision 2104 multi-label plate reader using excitation of 330 nm and emissions of 615 and 665 nm. Raw data were converted to nM cAMP by interpolation from a cAMP standard curve (as described in the manufacturer's assay protocol) and the percent effect was determined relative to a saturating concentration of the full agonist GLP-17-36 (1 μM) included on each plate. EC50 determinations were made from agonist dose-response curves analyzed with a curve fitting program using a 4-parameter logistic dose response equation.
Where [3] appears, read: CHO GLP-1R Clone C6, relative to saturating concentration of full agonist GLP-1 (1 μM), arithmetic mean.
[4] abbreviates: read-out: Assay 1 Emax (%), CHO GLP-1R Clone H6, relative to saturating concentration of full agonist GLP-1 (1 μM), arithmetic mean.

Read-outs that look alike come from different tables or passages of the source. Some results are limits rather than exact numbers.

Sequence of human GLP-1R (Homo sapiens (Human), UniProt P43220, L260F) (P43220 24-463 L260F): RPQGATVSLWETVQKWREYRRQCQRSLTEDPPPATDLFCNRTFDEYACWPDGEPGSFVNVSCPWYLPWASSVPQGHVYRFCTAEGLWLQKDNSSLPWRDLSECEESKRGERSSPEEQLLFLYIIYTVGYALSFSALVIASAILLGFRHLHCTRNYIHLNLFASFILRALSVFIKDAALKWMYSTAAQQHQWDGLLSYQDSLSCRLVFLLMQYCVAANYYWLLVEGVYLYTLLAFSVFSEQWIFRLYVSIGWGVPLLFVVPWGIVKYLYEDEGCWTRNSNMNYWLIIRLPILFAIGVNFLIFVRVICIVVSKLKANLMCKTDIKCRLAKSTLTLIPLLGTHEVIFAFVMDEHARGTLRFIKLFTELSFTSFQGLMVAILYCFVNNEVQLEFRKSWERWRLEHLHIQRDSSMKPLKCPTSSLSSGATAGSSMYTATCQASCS
Sequence of human GLP-1R (Homo sapiens, UniProt P43220, G168S) (P43220 24-463 G168S limits assumed): as the sequence (P43220 24-463 L260F) above, with G145S, F237L counted along it

Regarding `COCCn1c(CN2CCC(c3cccc(OCc4ccc(Cl)cc4F)n3)CC2)nc2ncc(C(=O)O)nc21` [Example 2A-10, 2-[(4-{6-[(4-chloro-2-fluorobenzyl)oxy]pyridin-2-yl}piperidin-1-yl)methyl]-1-(2-methoxyethyl)-1H-imidazo[4,5-b]pyrazine-6-carboxylic acid], the EC50 was 680 nM in experiment [1] and 43 nM in experiment [2]. Further, the results for the Emax in experiment [1] (setting [3]) and in experiment [2] (setting [4]) were 110% and 82%, respectively.

In the case of `Cn1c(CN2CCC(c3cccc(OCc4ccc(Cl)cc4F)n3)CC2)nc2cc(Cl)c(C(=O)O)cc21` [Example 2A-13, 5-chloro-2-[(4-{6-[(4-chloro-2-fluorobenzyl)oxy]pyridin-2-yl}piperidin-1-yl)methyl]-1-methyl-1H-benzimidazole-6-carboxylic acid], the figures for the half-maximal effective concentration (EC50) in experiment [1] and in experiment [2] were over 15000 nM and 770 nM, respectively. For the same molecule, the Emax in experiment [1] (setting [3]) amounted to 100%; in experiment [2] (setting [4]), 78%.

For the molecule `COCCn1c(CN2CCC(c3cccc(OCc4ccc(C#N)cc4)n3)CC2)nc2cc(F)c(C(=O)O)cc21` [Example 2A-14, 2-[(4-{6-[(4-cyanobenzyl)oxy]pyridin-2-yl}piperidin-1-yl)methyl]-5-fluoro-1-(2-methoxyethyl)-1H-benzimidazole-6-carboxylic acid], the EC50 in experiment [1] worked out at 3000 nM; in experiment [2], 110 nM. In addition, the maximum response (Emax) in experiment [1] (setting [3]) was found to be 92%; in experiment [2] (setting [4]) it was 71%.

`COCCn1c(CN2CCC(c3cccc(OCc4ccc(C#N)cc4)n3)CC2)nc2ccc(C(=O)O)c(F)c21` [Example 2A-15, 2-[(4-{6-[(4-cyanobenzyl)oxy]pyridin-2-yl}piperidin-1-yl)methyl]-7-fluoro-1-(2-methoxyethyl)-1H-benzimidazole-6-carboxylic acid]: the half-maximal effective concentration (EC50) in experiment [1] turned out to be 280 nM; in experiment [2], 22 nM. For the same molecule, the Emax in experiment [1] (setting [3]) turned out to be 91%; in experiment [2] (setting [4]), 87%.

Regarding `COCCn1c(CN2CCC(c3cccc(OCc4ccc(Cl)cc4F)n3)CC2)nc2ccc(C(=O)O)nc21` [Example 2A-17, 2-[(4-{6-[(4-chloro-2-fluorobenzyl)oxy]pyridin-2-yl}piperidin-1-yl)methyl]-3-(2-methoxyethyl)-3H-imidazo[4,5-b]pyridine-5-carboxylic acid], the values for the concentration giving a half-maximal response (EC50) in experiment [1] and in experiment [2] were 1200 nM and 24 nM, respectively. The Emax in experiment [1] (setting [3]) came to 94%; in experiment [2] (setting [4]), 76%.

Consider `O=C(O)c1ccc2nc(CN3CCC(c4cccc(OCc5ccc(Cl)cc5F)n4)CC3)n(Cc3ncco3)c2n1` [Example 2A-18, 2-[(4-{6-[(4-chloro-2-fluorobenzyl)oxy]pyridin-2-yl}piperidin-1-yl)methyl]-3-(1,3-oxazol-2-ylmethyl)-3H-imidazo[4,5-b]pyridine-5-carboxylic acid], for which the EC50 in experiment [1] turned out to be 78 nM; in experiment [2] it was 6 nM. Further, the Emax in experiment [1] (setting [3]) came out at 88%; in experiment [2] (setting [4]) it was 80%.

As for `N#Cc1ccc(COc2cccc(C3CCN(Cc4nc5ccc(C(=O)O)nc5n4Cc4ncco4)CC3)n2)c(F)c1` [Example 2A-19, 2-[(4-{6-[(4-cyano-2-fluorobenzyl)oxy]pyridin-2-yl}piperidin-1-yl)methyl]-3-(1,3-oxazol-2-ylmethyl)-3H-imidazo[4,5-b]pyridine-5-carboxylic acid], the half-maximal effective concentration (EC50) turned out to be 150 nM in experiment [1] and 7.9 nM in experiment [2]. Besides, the maximum response (Emax) in experiment [1] (setting [3]) worked out at 100%; in experiment [2] (setting [4]), 80%.

Turning to `O=C(O)c1ccc2nc(CN3CCC(c4cccc(OCc5ccc(F)cc5F)n4)CC3)n(C[C@@H]3CCO3)c2n1` [Example 2A-20, 2-[(4-{6-[(2,4-difluorobenzyl)oxy]pyridin-2-yl}piperidin-1-yl)methyl]-3-[(2S)-oxetan-2-ylmethyl]-3H-imidazo[4,5-b]pyridine-5-carboxylic acid], the concentration giving a half-maximal response (EC50) came out at 14 nM in experiment [1] and 0.96 nM in experiment [2]. Besides, the values for the Emax in experiment [1] (setting [3]) and in experiment [2] (setting [4]) were 95% and 80%, respectively.

In the case of `C[C@H]1CN(c2cccc(OCc3ccc(C#N)cc3F)n2)CCN1Cc1nc2ccc(C(=O)O)nc2n1Cc1ncco1` [Example 2A-21, 2-{[(2S)-4-{6-[(4-cyano-2-fluorobenzyl)oxy]pyridin-2-yl}-2-methylpiperazin-1-yl]methyl}-3-(1,3-oxazol-2-ylmethyl)-3H-imidazo[4,5-b]pyridine-5-carboxylic acid], the concentration giving a half-maximal response (EC50) in experiment [1] was found to be 220 nM; in experiment [2], 8.5 nM. For the same molecule, the Emax was determined as 110% in experiment [1] (setting [3]) and 88% in experiment [2] (setting [4]).

On to `O=C(O)c1ccc2nc(CN3CCC(c4cccc(OCc5ccc(Cl)cc5F)n4)CC3)n(C[C@H]3CCO3)c2n1` [Example 2A-22, 2-[(4-{6-[(4-chloro-2-fluorobenzyl)oxy]pyridin-2-yl}piperidin-1-yl)methyl]-3-[(2R)-oxetan-2-ylmethyl]-3H-imidazo[4,5-b]pyridine-5-carboxylic acid], for which the concentration giving a half-maximal response (EC50) is 190 nM in experiment [1] and 14 nM in experiment [2]. In addition, the maximal effect (Emax) in experiment [1] (setting [3]) turned out to be 83%; in experiment [2] (setting [4]) it was 72%.

Regarding `O=C(O)c1ccc2nc(CN3CCC(c4cccc(OCc5ccc(Cl)cc5F)n4)CC3)n(C[C@@H]3CCO3)c2n1` [Example 2A-23, 2-[(4-{6-[(4-chloro-2-fluorobenzyl)oxy]pyridin-2-yl}piperidin-1-yl)methyl]-3-[(2S)-oxetan-2-ylmethyl]-3H-imidazo[4,5-b]pyridine-5-carboxylic acid], the EC50 in experiment [1] stood at 22 nM; in experiment [2], 0.5 nM. Further, the Emax in experiment [1] (setting [3]) stood at 96%; in experiment [2] (setting [4]) it was 73%.

Regarding `O=C(O)c1ccc2nc(CN3CCC(c4cccc(OCc5ccc(Cl)cc5F)n4)CC3)n(C[C@@H]3CCO3)c2c1` [Example 3A-01, 2-[(4-{6-[(4-chloro-2-fluorobenzyl)oxy]pyridin-2-yl}piperidin-1-yl)methyl]-1-[(2S)-oxetan-2-ylmethyl]-1H-benzimidazole-6-carboxylic acid], the half-maximal effective concentration (EC50) in experiment [1] came out at 12 nM; in experiment [2], 0.94 nM. For the same molecule, the results for the maximum response (Emax) in experiment [1] (setting [3]) and in experiment [2] (setting [4]) were 98% and 83%, respectively.

For `N#Cc1ccc(COc2cccc(C3CCN(Cc4nc5ccc(C(=O)O)cc5n4C[C@@H]4CCO4)CC3)n2)c(F)c1` [Example 4A-01, 2-[(4-{6-[(4-cyano-2-fluorobenzyl)oxy]pyridin-2-yl}piperidin-1-yl)methyl]-1-[(2S)-oxetan-2-ylmethyl]-1H-benzimidazole-6-carboxylic acid], the maximal response (Emax) in experiment [1] amounted to 100%; in experiment [2] (read-out: Assay 1 Emax (%)), 79%.

Turning to `N#Cc1ccc(COc2cccc(N3CCN(Cc4nc5ccc(C(=O)O)cc5n4C[C@@H]4CCO4)CC3)n2)c(F)c1` [Example 5A-01, 2-[(4-{6-[(4-Cyano-2-fluorobenzyl)oxy]pyridin-2-yl}piperazin-1-yl)methyl]-1-[(2S)-oxetan-2-ylmethyl]-1H-benzimidazole-6-carboxylic acid], the EC50 in experiment [1] was determined as 7.4 nM; in experiment [2], 0.34 nM. For the same molecule, the figures for the Emax in experiment [1] (setting [3]) and in experiment [2] (setting [4]) were 94% and 78%, respectively.

On to `N#Cc1ccc(COc2cccc(C3CCN(Cc4nc5ccc(C(=O)O)nc5n4C[C@@H]4CCO4)CC3)n2)c(F)c1` [Example 6A-01, 2-[(4-{6-[(4-cyano-2-fluorobenzyl)oxy]pyridin-2-yl}piperidin-1-yl)methyl]-3-[(2S)-oxetan-2-ylmethyl]-3H-imidazo[4,5-b]pyridine-5-carboxylic acid], for which the half-maximal effective concentration (EC50) in experiment [1] amounted to 8.8 nM; in experiment [2], 0.76 nM. Besides, the Emax in experiment [1] (setting [3]) stood at 100%; in experiment [2] (setting [4]) it was 88%.

As to `N#Cc1ccc(COc2cccc(C3CCN(Cc4nc5ccc(C(=O)O)cc5n4Cc4ncco4)CC3)n2)c(F)c1` [Example 7A-01, 2-[(4-{6-[(4-cyano-2-fluorobenzyl)oxy]pyridin-2-yl}piperidin-1-yl)methyl]-1-(1,3-oxazol-2-ylmethyl)-1H-benzimidazole-6-carboxylic acid], the maximum response (Emax) was found to be 86% in experiment [1] (setting [3]) and 84% in experiment [2] (setting [4]).

`COCCn1c(CN2CCC(c3cccc(OCc4ccc(C)cc4)n3)CC2)nc2ccc(C(=O)O)cc21` [Example 8A-01, Ammonium 2-((4-(6-((4-Methylbenzyl)oxy)pyridin-2-yl)piperidin-1-yl)methyl)-1-(2-methoxyethyl)-1H-benzo[d]imidazole-6-carboxylate]: the EC50 in experiment [1] is 1100 nM; in experiment [2] it was 100 nM. Besides, the Emax in experiment [1] (setting [3]) turned out to be 90%; in experiment [2] (setting [4]), 99%.

Regarding `COCCn1c(CN2CCC(c3cccc(OCc4cc(F)c(Cl)cc4F)n3)CC2)nc2ccc(C(=O)O)cc21` [Example 8A-03, 2-((4-(6-((4-chloro-2,5-difluorobenzyl)oxy)pyridin-2-yl)piperidin-1-yl)methyl)-1-(2-methoxyethyl)-1H-benzo[d]imidazole-6-carboxylic acid], the EC50 in experiment [1] was determined as 350 nM; in experiment [2], 18 nM. The maximal response (Emax) turned out to be 77% in experiment [1] (setting [3]) and 84% in experiment [2] (setting [4]).

In the case of `COCCn1c(CN2CCC(c3cccc(OCc4c(F)cc(Cl)cc4F)n3)CC2)nc2ccc(C(=O)O)cc21` [Example 8A-04, 2-((4-(6-((4-chloro-2,6-difluorobenzyl)oxy)pyridin-2-yl)piperidin-1-yl)methyl)-1-(2-methoxyethyl)-1H-benzo[d]imidazole-6-carboxylic acid], the results for the EC50 in experiment [1] and in experiment [2] were 1700 nM and 120 nM, respectively. The results for the maximum response (Emax) in experiment [1] (setting [3]) and in experiment [2] (setting [4]) were 88% and 79%, respectively.

`Cn1c(CN2CCC(c3cccc(OCc4ccc(Cl)cc4)n3)CC2)nc2ccc(C(=O)O)cc21` [Example 9A-07, 2-[(4-{6-[(4-chlorobenzyl)oxy]pyridin-2-yl}piperidin-1-yl)methyl]-1-methyl-1H-benzimidazole-6-carboxylic acid]: the EC50 in experiment [1] amounted to 2100 nM; in experiment [2], 170 nM. In addition, the Emax in experiment [1] (setting [3]) is 71%. Moreover, the “Assay 1 Emax (%)” value in experiment [2] (CHO GLP-1R Clone H6, relative to saturating concentration of full agonist GLP-1 (1 μM), arithmetic mean) is on record as 78%.
